EP2042178A1, “Ocular formulations comprising 5-chlorouracil and use thereof” (INSTITUT NATIONAL DE LA SANTE ET DE LA RECHERCHE MEDICALE …, priority 2007, dated 2009)
In brackets after ≈: the same amount, converted by molar mass. Like-named read-outs stand apart in the source and are kept apart here.

Experiments:
rabbit fibroblasts = experiment: Trypan blue exclusion test / cell counting, fibroblast proliferation; settings: for concentration at which inhibition of cell proliferation is significant: 24 hours exposure; for inhibition at 10 µg/mL / inhibition at 20 µg/mL / inhibition at 100 µg/mL: Oryctolagus cuniculus, Fibroblast, 24 h, read-out: inhibition of cell proliferation
[1] = tested on: rabbit Tenon's capsule fibroblasts; settings: for cell death: sub-confluent fibroblasts, 24 hours
Procedure: Cells were seeded at a density of 2 x 10^4 cells / well until reaching subconfluency and were then treated with 5-chlorouracil (5-CU) or with 5-fluorouracil (5-FU) at different concentrations (0, 0.5, 5, 50, 500, 1'000 or 5'000 µg/ml) for 24 hours.
MTT (Sigma) (1mg/ml in PBS) was added to the wells and plates were incubated at 37°C for 1 hour. Isopropanol was then added and mixed thoroughly to dissolve the dark blue crystals and the plates were rapidly read on a BIO-RAD Model 450 Microplate reader, using a test wavelength of 570 nm and a reference wavelength of 630 nm.

[2] = In vitro rate of release from POE IV formulation; format: physicochemical
Procedure: Formulations were prepared under a laminar airflow hood. […] The viscous mixture was conditioned in a 1.0 ml syringe, each sample being 200µl (240 mg). In a preliminary investigation, the in vitro rate of release of 5-CU was determined according to the procedure described by Merkli et al., 1998, J. Control. […] 5-FU in vitro rate of release from POE IV has also previously been described by Heller et al, 2005, Adv. Drug Delivery Rev., 57(14)2053-62.

[3] = tested on: human conjunctival cell line (Wong-Kilbourne derivative of Chang conjunctiva); experiment: Neutral red test (cellular viability); format: cell-based; settings: for cell viability decrease: concentrations up to 10 µg/ml; for IC50: Homo sapiens, 72 hours of exposure
Procedure: (§1) Normal culture development was assessed daily by phase-contrast microscopy. Confluent cultures were removed by gentle trypsin incubation, and cells were counted. For cytotoxicity experiments, cells were seeded into 96-well culture plates (18'000 cells per well; Nunc, Roskild, Denmark) until sub-confluence (culture surface covering nearly 70%) and were then exposed to the different formulations. Experiments were performed by microplate cold light fluorometry (Fluorolite 1000 Dynex; Issy-les-Moulineaux, France), as previously validated (Debbasch et al., 2001, Invest. Ophthalmol. Vis. Sci., 42, 642-652). According to the recommendations of the European Center for the Validation of Alternative Methods (ECVAM) and to previously validated methods in the Chang cell line, two cellular markers were evaluated: cellular viability and chromatin condensation. Cellular viability was evaluated with a neutral red (Fluka, Ronkonkoma, NY) test with fluorometric detection (excitation: 535 nm; emission: 600 nm). Hoechst 33342 (Molecular Probes, Eugene, OR) is an intercalating dye, which allows the determination of the total chromatin quantity variations and the degree of chromatin condensation. […] was used on cells at a final concentration of 10 µg/ml (excitation: 360 nm; emission: 450 nm). 0.5 mg/ml propidium iodide (Roche Diagnostics Corp., Meylan, France) was added to the Hoechst solution, to control necrotic cells, as previously validated. The supravital uptake of Hoechst 33342 combined with extrusion of propidium iodide was used as an assay for apoptosis as described in Belloc et al., 1994, Cytometry, 17, 59-65. […] It is defined by a series of cellular changes: (a) the cell shrinks, looses contact with neighbouring cells or surrounding matrix and starts to display intracellular proteins on its surface; (b) the chromatin in the nucleus condenses and the DNA is cleaved into small fragments; (c) the plasma membrane then begins to show a bubbled appearance and small membrane bound bodies break off containing intracellular material which can include nuclear matter and cellular organelles. These fragments are known as "apoptotic bodies" which are quickly removed by phagocytes or by neighbouring cells.
In these experiments, cell viability and chromatin condensation were evaluated after a 24 and 72 hour-incubation, with […] of 5-chlorouracil as compared with the same concentrations of 5-fluorouracil. The value of IC50 (concentration inhibiting 50% of cell population) was used to compare 5-FU and 5-CU cytotoxicities. Dulbecco's minimum essential medium was used as a control, and was used to dilute the tested molecules.

[4] = tested on: human conjunctival cell line (Wong-Kilbourne derivative of Chang conjunctiva); experiment: Hoechst 33342 test (chromatin condensation, with propidium iodide); format: cell-based; settings: for chromatin condensation compared to control cells: up to 1 µg/ml; for chromatin condensation: increasing concentrations >1 µg/ml
Procedure: as §1
The value of IC50 (concentration inhibiting 50% of cell population) was used to compare 5-FU and 5-CU cytotoxicities. Dulbecco's minimum essential medium was used as a control, and was used to dilute the tested molecules.

[5] = same conditions, Heller et al., 2005; cited from earlier work
[6] = sub-conjunctival injection, cited from earlier work
[7] = Hoechst and neutral red results combined, 72 hours of exposure
[8] = Hoechst test, high concentrations

SMILES | concentration at which inhibition of cell proliferation is significant (rabbit fibroblasts) [µg/mL] | inhibition at 10 µg/mL (rabbit fibroblasts) [%] | inhibition at 20 µg/mL (rabbit fibroblasts) [%] | inhibition at 100 µg/mL (rabbit fibroblasts) [%] | cell viability decrease ([3]; 24 hour-incubation) | IC50 [3] [µg/mL] | chromatin condensation compared to control cells ([4]; 24 hours) | type of cell death induced [4, 7] | type of cell death induced [4, 8] | other results
O=c1[nH]cc(Cl)c(=O)[nH]1 [5-CU, 5-chloro-1H-pyrimidine-2,4-dione] | ≥ 10 | 23 | 23 | 25 | about 20% | 2500 (≈ 17.1 mM) | no significant difference | apoptotic cell death | apoptotic cell death | times less toxic to non-proliferating cells than 5-FU ([1]; rabbit, 24 h): 1'000 times; cell death ([1]; 5'000 µg/ml): 33%; daily release rate ([2]; 1% 5-CU from POE IV formulation, for up to forty days): approximately 8 µg/day; in vitro rate of release ([2]; from POE IV, 1% wt/wt, over a period of up to 40 days, preliminary investigation): 8 micrograms per day; cell death ([3]; 24 hour-incubation, 1'000 µg/ml): 35%; cell death ([3]; 72 hour-incubation, 4 mg/ml (highest concentration)): 75%; Hoechst fluorescence compared with identical 5-FU concentrations ([4]; 24 hours, increasing concentrations up to 1'000 µg/ml, P=0.0079): very significant increase
O=c1[nH]cc(F)c(=O)[nH]1 [5-FU, 5-fluorouracil] | ≥ 10 | 28 | 40 | 43 | about 20% | 7 (≈ 0.0538 mM) | no significant difference | apopto-necrotic cell death | necrotic cell death | cell death ([1]; 5 µg/ml): 39.1%; cell death ([1]; 50 µg/ml): 51%; cell death ([3]; 24 hour-incubation, 100 µg/ml): 55%; cellular viability ([3]; 72 hour-incubation, 1 µg/ml): significantly decreased; in vitro rate of release from POE IV [5]: 100 µg per day; corneal levels ([6]; at 1 hour): 20 µg/g; corneal levels ([6]; at 24 hours): 5 µg/g; time for which ID50 levels are maintained ([6]; at the injection site and 180° from it): up to 24 hours; chromatin condensation ([4]; 24 hours, P=0.0079): dose-dependant significant decrease; chromatin condensation ([4]; 72 hours, P=0.02): dose-dependant significant decrease
